Data: paper PMC9321718 (Pharmaceuticals, 2022)
In brackets after ≈: the same amount, converted by molar mass.

Experiments:
[1] = Formation of inclusion complexes with MCD (UV spectroscopy, Hill linearization); type: physicochemical; conditions: MCD; for EE, % / LC, %: C(MCD) = 0.01 M, pH 6.2, 22 °C; for n: Xaq + n MCDaq ⇌ X·nMCDaq, 5 mM sodium phosphate buffer pH 6.2, 22 °C
Method: (§1) To optimize the system composition, similar experiments were carried out on the formation of EG and apiol inclusion complexes with HPCD (Figure S1). […] According to these changes, the dissociation constants of the EG–HPCD and apiol–HPCD complexes (Figure S2) were calculated by Hill’s equation (Table 1). […] The physicochemical parameters of the interaction of APAB and terpenoids (X) with CD were studied by determining the concentration of substances in the aqueous fraction ([APAB] + [APAB-MCD]) according to the calibration dependence (Figure 1C) for systems with a constant amount of the essential oil component X and the concentration gradient MCD (Table 1). Theta (θ) is a fraction of the bound substance X:θ = [X-MCD]/([X-MCD] + [X]) and was calculated based on the dependence of the absorption intensity X on the MCD concentration in the system in the form of a sigmoidal Hill curve with subsequent linearization (Section 3, Section 3.3 and Section 3.4).
(§2) The molar excess of CD varied from 0.04 to 10). Further, the complexes were incubated for 1 h at 37 °C and then centrifuged ([…], 15 min, Eppendorf tubes) to separate the insoluble fractions. Complexes were studied by UV and FTIR spectroscopy.
(§3) UV spectra of solutions (point 3.3.1) were recorded on the AmerSham Biosciences UltraSpec 2100 pro device (USA) three times in the range of 200–400 nm in a quartz cell Hellma 100–QS with an optical path of 1 cm. Background spectrum (5 mM sodium phosphate buffer (pH 6.2) with 50% EtOH) was subtracted as a blank.
(§4) (1) Calculation of the dissociation constants X–MCD and X–HPCD, where X is a “guest” compound, considering the equilibrium: Xaq + n MCDaq ↔ X·nMCDaq, where Kd = [MCDaq]^n · [Xaq]/[X·nMCDaq].
(§5) First, fitting of the curves of change of the analytical signal ξ (peak intensity or peak position) versus concentration of the MCD or HPCD or was carried out using the Hill equations: (1) ξ = ξ∞ · [MCD]^n/([MCD]^n + K^n), where ξ∞—horizontal asymptote; (2) ξ = ξ0 + (ξ∞–ξ0) · [MCD]^n/([MCD]^n + K^n). Second, calculation n and Kd values by Hill’s linearization in n-binding site model: lg (θ/(1 – θ)) = n · lg [L] – lg Kd, where θ = |(ξ – ξ0)/(ξ∞ − ξ0)|is a fraction of the bound substance. N in Hill equation—number of drug molecules per CD torus.
Calculations for the following items are performed when [MCD] = 0.01 M.

physchem = conditions: 22 °C, pH 6.2, water
Method: (§6) (3) Solubility of X in water C0 = [Xaq] = A/(ε · l) was determined by UV absorbance after centrifugation of samples (10 min, 10,000× g). l = 1 cm. ε—molar absorbance coefficient (Figure 1C).

[2] = Solubility of X in water and in the presence of MCD/HPCD (UV absorbance)
Method: as §6

[3] = pH 6.2
Method: as §6

[4] = set-up: method as in PMID 20214546; conditions: host:guest molar ratio of 1:1; cited from earlier work
[5] = Formation of inclusion complexes with HPCD (UV spectroscopy, Hill linearization); type: physicochemical; conditions: pH 6.2, 22 °C; for EE, % / LC, %: 0.01 M
Method: as §1, §2, §3, §4, §5

[6] = Solid-phase FTIR microscopy of the EG–HPCD complex (distribution of EE); type: physicochemical; conditions: EG–HPCD complex in solid form
Description: To level the overlap of bond fluctuations in water molecules and the effect of hydration, the spectra of the EG–HPCD complex in solid form were registered as complementary materials (Figure S6). There are characteristic peaks of EG, which were quenched in the aqueous phase, C–Carom and C=C of the ethylene group. In the solid phase, we observed peaks corresponding to the stretching oscillations of CH2, CH3 groups (2900–3000 cm^−^1) and O-H (3200–3500 cm^−^1) without solvent contribution. […] EG was effectively (EE > 70%) included in two-thirds of the sample by quantity, in the remaining part EE exceeded 25–35%.
ATR-FTIR spectra of samples’ solutions (point 3.3.1) were recorded using a Bruker Tensor 27 spectrometer equipped with a liquid nitrogen cooled MCT (mercury cadmium telluride) detector. Samples were placed in a thermostatic cell BioATR-II with ZnSe ATR element (Bruker, Ettlingen, Germany). The IR spectrometer was merged with a constant flow of N2 (NiGen HF-1, Clint, Italy). FTIR spectra were acquired from 900 to 3000 cm^−1 with 1 cm^−1 spectral resolution. For each spectrum, 50–70 scans were accumulated at 20 kHz scanning speed and averaged. ATR-FTIR spectra of solid samples placed on KBr glass were recorded using a Bruker Lumos II IR microscope in the region from 700 to 4000 cm^−1 with 1 cm^−1 spectral resolution with scanning in the area on average 1 × 1 microns. […]

[7] = Dissociation constant of complexes with HPCD by FTIR spectroscopy; type: physicochemical; conditions: complex with HPCD, aqueous solutions, 22 °C
Description: Changes in the microenvironment of chemical bonds, functional groups, protonation/deprotonation, or the formation of non-valent interactions between the receptor and the ligand (in this case, the formation of guest–host inclusion complexes of CD with EG and apiol molecules) leads to a change in the intensity or position of characteristic peaks in the IR spectra. […] The above-indicated peaks in the IR spectra are composite which was visually confirmed by the changes in the shape of peaks and even the appearance of shoulders when the APAB was turned on in the CD cavity. To separate the complex peaks into components, increase sensitivity and obtain more detailed information, the differentiation method was used. The shifts of minima/maxima of the second derivative of spectra (Figure 2B) in allyl ν(C=C) and aromatic ν(C–C) regions were the most prominent. […]
ATR-FTIR spectra of samples’ solutions (point 3.3.1) were recorded using a Bruker Tensor 27 spectrometer equipped with a liquid nitrogen cooled MCT (mercury cadmium telluride) detector. […] ATR-FTIR spectra of solid samples placed on KBr glass were recorded using a Bruker Lumos II IR microscope in the region from 700 to 4000 cm^−1 with 1 cm^−1 spectral resolution with scanning in the area on average 1 × 1 microns. […]

E. coli = tested on: E. coli; set-up: method as in PMID 20214546; conditions: EG in the form of a complex with CD; cited from earlier work
Gram-negative bacteria = tested on: Gram-negative bacteria; set-up: method as in PMID 19540744; conditions: cited from earlier work
[8] = Dissolution of APAB on inclusion into CD, observed in a light microscope; type: physicochemical; conditions: MCD and HPCD
Method: The dependence of the dissolution degree on the content of CD in the system was determined. […] Since soluble complex forms of EG, apiol and other individual components of essential oils have been obtained, a quantitative study of the adjuvant and synergistic activities of APAB is relevant but previously impossible because of the stratification of substances and the formation of oil fractions. The following are the results of experiments to determine the antibacterial and synergistic effects of adjuvant–CD complexes.

[9] = set-up: method as in doi:10.1016/j.foodres.2009.06.006; conditions: complex with β-form of CD; cited from earlier work

Row | Compound | EE, % [1] [%] | LC, % [1] [%] | n [1] | solubility (physchem) [µM] | Cmax in the Presence of 2 mM MCD [3] | Cmax in the Presence of 10 mM MCD [3] | EE, % [5] [%] | LC, % [5] [%] | n [5] | Kd [7] [mM] | amount of CD required for a noticeable conversion to the complex/soluble form [8] | molar excess of CD for almost complete dissolution [8] | also measured
1 | C=CCc1ccc2c(c1)OCO2 [Safrole] | 95 ± 4 | 8 ± 1 | 1.5 ± 0.2 | 800 ± 100 (≈ 130 µg/mL) |  |  |  |  |  |  |  |  | EE, % ([1]; listed as safrole): more than 90%; increased solubility of APAB, times ([2]; APAB–MCD molar ratio 1:5 vs water without MCD, UV): 25 times
2 | CC1CCC(C(C)C)C(O)C1 (stereo not drawn) [Menthol] | 91 ± 6 | 11 ± 1 | 1.1 ± 0.1 | 230 ± 40 (≈ 35.9 µg/mL) | 1.4 ± 0.2 mM | 8.5 ± 0.8 mM |  |  |  |  |  |  | EE, % ([1]; listed as menthol): more than 90%
3 | C=CCc1ccc(O)c(OC)c1 [Eugenol, 4-allyl-2-methoxyphenol] | 39 ± 3 | 10 ± 1 | 1.32 ± 0.08 | 8200 ± 200 (≈ 1350 µg/mL) | 8.3 ± 0.2 (MCD), 8.5 ± 0.1 (HPCD) mM | 11 ± 1 (MCD), 13 ± 1 (HPCD) mM | 56 ± 7 | 9 ± 1 | 1.2 ± 0.1 | 4.1 ± 0.3 | equimolar | 5 fold molar excess | Cmax in the Presence of 2 mM HPCD [3]: 8.3 ± 0.2 (MCD), 8.5 ± 0.1 (HPCD) mM; Cmax in the Presence of 10 mM HPCD [3]: 11 ± 1 (MCD), 13 ± 1 (HPCD) mM; initial amount of EG included in CD [4]: ~92%; mass fraction of EG in the sample [4]: about 58%; EE in the remaining part of the sample ([6]; remaining part): 25–35%; EE in two-thirds of the sample ([6]; two-thirds of the sample by quantity): > 70%; concentration already active in growth inhibition (E. coli): 0.5 mg/mL; reduction of the MIC of antibiotics by EG as an adjuvant (Gram-negative bacteria; Gram-negative bacteria, highest values for tetracycline and vancomycin): 5–1000 times; concentration at which EG forms defects in the membranes of bacteria (Gram-negative bacteria; suggested): 1 mM; half-dissociation period [9]: 3 h
4 | C=CCc1cc(OC)c2c(c1OC)OCO2 [Apiol] | 20 ± 2 | 11 ± 1 | 1.6 ± 0.2 |  |  |  | 7 ± 1 | 9 ± 1 | 1.56 ± 0.25 | 4 ± 0.3 | 2 fold molar excess | 10–15 fold molar excess | solubility ([2]; 22 °C, pH 6.2, water): 130 ± 10 µM
